Key:
Assay in all cases: relative viability (nuclei count vs DMSO), 5 days (fraction); higher = more cells survive
[1] = compound: Cc1nc(Nc2ncc(C(=O)Nc3c(C)cccc3Cl)s2)cc(N2CCN(CCO)CC2)n1 [Dasatinib] + COc1cccc2cc(-c3nc([C@H]4CC[C@H](C(=O)O)CC4)n4ncnc(N)c34)[nH]c12 [OSI-027] (partner 0.5 µM)
Summary of the method: (§1)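 Each reported value is a median over duplicate plates. It expresses relative viability: treated-well nuclei count divided by vehicle-well nuclei count. Lung cancer cell lines in 1536-well plates were dosed by pin tool a day after seeding, alone with one drug or with a fixed anchor-drug dose plus five library-drug doses (not always all listed) in √10 steps, and nuclei were counted after 5 days.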

[2] = compound: C1CC1C(=O)NC2=NNC3=C2C=CC(=C3)C4=CC(=CC=C4)C(=O)NC5CC5 [XMD13-2] + COc1cccc2cc(-c3nc([C@H]4CC[C@H](C(=O)O)CC4)n4ncnc(N)c34)[nH]c12 [OSI-027] (partner 0.5 µM)
Summary of the method: as §1

[3] = compound: C1CC1C(=O)NC2=NNC3=C2C=CC(=C3)C4=CC(=CC=C4)C(=O)NC5CC5 [XMD13-2] + Cc1nc(NC(=O)N2CCC[C@H]2C(N)=O)sc1-c1ccnc(C(C)(C)C(F)(F)F)c1 [Alpelisib] (partner 2 µM)
Summary of the method: as §1

[4] = compound: Cc1ccc(C(=O)Nc2cccc(C(F)(F)F)c2)cc1Nc1cncc(C(N)=O)c1 [ALW-II-49-7] + Nc1ncn([C@H]2C[C@H](O)[C@@H](CO)O2)c(=O)n1 [Decitabine] (partner 2 µM)
Summary of the method: as §1

| Cell Line | relative viability ([1]; first compound 0.005 µM) | relative viability ([1]; first compound 0.01581 µM) | relative viability ([1]; first compound 0.05 µM) | relative viability ([1]; first compound 0.1581 µM) | relative viability ([1]; first compound 0.5 µM) | relative viability ([2]; first compound 0.05 µM) | relative viability ([2]; first compound 0.1581 µM) | relative viability ([2]; first compound 0.5 µM) | relative viability ([2]; first compound 1.581 µM) | relative viability ([2]; first compound 5 µM) | relative viability ([3]; first compound 0.05 µM) | relative viability ([3]; first compound 0.1581 µM) | relative viability ([3]; first compound 0.5 µM) | relative viability ([3]; first compound 1.581 µM) | relative viability ([3]; first compound 5 µM) | relative viability ([4]; first compound 0.08 µM) | relative viability ([4]; first compound 0.253 µM) | relative viability ([4]; first compound 0.8 µM) | relative viability ([4]; first compound 2.53 µM) | relative viability ([4]; first compound 8 µM) |
| --- | --- | --- | --- | --- | --- | --- | --- | --- | --- | --- | --- | --- | --- | --- | --- | --- | --- | --- | --- | --- |
| NCI-H1623 | 0.423 | 0.393 | 0.396 | 0.462 | 0.339 | 0.417 | 0.43 | 0.408 | 0.363 | 0.462 | – | – | – | – | – | – | – | – | – | – |
| HCC-827 | 0.805 | 0.745 | 0.557 | 0.456 | 0.119 | 0.911 | 0.747 | 0.708 | 0.753 | 0.675 | 1.01 | 0.917 | 1.01 | 0.947 | 0.528 | 0.294 | 0.307 | 0.335 | 0.331 | 0.271 |
| NCI-H322M | 0.549 | 0.483 | 0.351 | 0.213 | 0.168 | 0.576 | 0.507 | 0.519 | 0.588 | 0.593 | 0.833 | 0.716 | 0.71 | 0.793 | 0.872 | 0.618 | 0.774 | 0.637 | 0.756 | 0.671 |
| ChaGo-K-1 | 0.556 | 0.501 | 0.52 | 0.459 | 0.423 | 0.642 | 0.545 | 0.597 | 0.542 | 0.497 | – | – | – | – | – | 0.541 | 0.472 | 0.526 | 0.537 | 0.546 |
| BEN | 0.262 | 0.233 | 0.218 | 0.214 | 0.187 | 0.309 | 0.276 | 0.312 | 0.291 | 0.327 | 1.29 | 1.03 | 1 | 1.03 | 1.11 | 0.693 | 0.751 | 0.776 | 0.728 | 0.656 |
| NCI-H2347 | 0.233 | 0.242 | 0.269 | 0.234 | 0.218 | 0.394 | 0.455 | 0.426 | 0.444 | 0.413 | 1.04 | 1.07 | 1.08 | 0.92 | 1.05 | 0.714 | 0.647 | 0.57 | 0.718 | 0.681 |
| LOU-NH91 | 0.705 | 0.604 | 0.595 | 0.526 | 0.344 | 0.753 | 0.716 | 0.759 | 0.663 | 0.815 | 0.783 | 0.759 | 0.72 | 0.659 | 0.796 | 0.785 | 0.824 | 0.844 | – | 0.861 |
| NCI-H2228 | 0.757 | 0.552 | 0.522 | 0.31 | 0.308 | 0.824 | 0.605 | 0.597 | 0.518 | 0.546 | 0.768 | 0.716 | 0.771 | 0.772 | 0.655 | – | – | – | – | – |
| NCI-H2342 | 0.563 | 0.503 | 0.518 | 0.403 | 0.36 | 0.581 | 0.658 | 0.728 | 0.643 | 0.597 | – | – | – | – | – | 0.714 | 0.767 | 0.697 | 0.693 | 0.783 |

— the supplement of paper PMC10307832
